# Assay results: PubChem BioAssay (NCI)
#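 Compound exposure: 48 hours, 5 concentrations, 96-well plates. Here, GI50 denotes the concentration required for 50% inhibition of growth. TGI: total growth inhibition.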
# Assays:
# Assay in all cases: NCI-60 cell line screen, 48 h
# [1] = test system: HOP-62 NSCLC
# [2] = test system: SK-MEL-5 melanoma
# [3] = test system: OVCAR-3 ovarian
# [4] = test system: HCC-2998 colon
# [5] = test system: NCI-H226 lung
# [6] = test system: NCI/ADR-RES ovarian
# [7] = test system: MDA-MB-435
# [8] = test system: SNB-75 CNS
# [9] = test system: SN12C renal
# [10] = test system: HL-60(TB) leukemia
# [11] = test system: SK-MEL-2 melanoma
# [12] = test system: NCI-H23 lung
# [13] = test system: 786-0 renal
# [14] = test system: OVCAR-4 ovarian
# [15] = test system: SF-295 CNS
# [16] = test system: A498 renal
# [17] = test system: MALME-3M melanoma
# [18] = test system: NCI-H522 lung
# [19] = test system: EKVX NSCLC
# [20] = test system: PC-3 prostate
# [21] = test system: HT29 colon
# [22] = test system: CCRF-CEM leukemia
# [23] = test system: SNB-19 CNS
# [24] = test system: KM12 colon
# [25] = test system: RXF 393 renal
# [26] = test system: BT-549 breast
# [27] = test system: U251 CNS
# [28] = test system: HCT-116 colon
# [29] = test system: OVCAR-5 ovarian
# [30] = test system: SF-539 CNS
# [31] = test system: A549 NSCLC
# [32] = test system: UACC-62 melanoma
# [33] = test system: TK-10 renal
# [34] = test system: MDA-MB-231 breast
# [35] = test system: SK-MEL-28 melanoma
# [36] = test system: M14 melanoma
# [37] = test system: NCI-H460 lung
# [38] = test system: MCF7 breast
# [39] = test system: HOP-92 NSCLC
# [40] = test system: HCT-15 colon
# [41] = test system: MOLT-4 leukemia
# [42] = test system: SK-OV-3 ovarian
# [43] = test system: LOX IMVI melanoma
# [44] = test system: UO-31 renal
# [45] = test system: UACC-257 melanoma
# [46] = test system: OVCAR-8 ovarian
# [47] = test system: T-47D breast
# [48] = test system: DU-145 prostate
# [49] = test system: SR leukemia
# [50] = test system: HS 578T breast
# [51] = test system: COLO 205 colon
# [52] = test system: K-562 leukemia
# [53] = test system: SF-268 CNS
# [54] = test system: CAKI-1 renal
# [55] = test system: ACHN renal
# [56] = test system: RPMI-8226 leukemia
# [57] = test system: SW-620 colon
# [58] = test system: IGROV1 ovarian
smiles,measurement,setting,value
C1CCC(C(CC2CCCCN2)C2CCCCC2)CC1 (stereo unspecified),GI50,[1],1350 nM
same,TGI,[1],2640 nM
same,GI50,[2],1550 nM
same,TGI,[2],2910 nM
same,GI50,[3],1820 nM
same,TGI,[3],3260 nM
same,GI50,[4],1410 nM
same,TGI,[4],2960 nM
same,GI50,[5],1640 nM
same,TGI,[5],3190 nM
same,GI50,[6],1880 nM
same,TGI,[6],3810 nM
same,GI50,[7],1590 nM
same,TGI,[7],3070 nM
same,GI50,[8],1770 nM
same,TGI,[8],3430 nM
same,GI50,[9],1510 nM
same,TGI,[9],2970 nM
same,GI50,[10],2370 nM
same,TGI,[10],4380 nM
same,GI50,[11],2030 nM
same,TGI,[11],3690 nM
same,GI50,[12],1720 nM
same,TGI,[12],3490 nM
same,GI50,[13],1640 nM
same,TGI,[13],3160 nM
same,GI50,[14],1650 nM
same,TGI,[14],3040 nM
same,GI50,[15],1730 nM
same,TGI,[15],3210 nM
same,GI50,[16],1360 nM
same,TGI,[16],2670 nM
same,GI50,[17],1920 nM
same,TGI,[17],3690 nM
same,GI50,[18],1600 nM
same,TGI,[18],3160 nM
same,GI50,[19],1620 nM
same,TGI,[19],3280 nM
same,GI50,[20],1500 nM
same,TGI,[20],2950 nM
same,GI50,[21],1550 nM
same,TGI,[21],3060 nM
same,GI50,[22],1970 nM
same,TGI,[22],4820 nM
same,GI50,[23],1780 nM
same,TGI,[23],3510 nM
same,GI50,[24],1870 nM
same,TGI,[24],3420 nM
same,GI50,[25],1420 nM
same,TGI,[25],2780 nM
same,GI50,[26],1930 nM
same,TGI,[26],3510 nM
same,GI50,[27],1590 nM
same,TGI,[27],3020 nM
same,GI50,[28],1680 nM
same,TGI,[28],3140 nM
same,GI50,[29],1700 nM
same,TGI,[29],3220 nM
same,GI50,[30],1820 nM
same,TGI,[30],3390 nM
same,GI50,[31],1720 nM
same,TGI,[31],3320 nM
same,GI50,[32],1530 nM
same,TGI,[32],2960 nM
same,GI50,[33],1630 nM
same,TGI,[33],3090 nM
same,GI50,[34],1250 nM
same,TGI,[34],2600 nM
same,GI50,[35],1880 nM
same,TGI,[35],3300 nM
same,GI50,[36],1760 nM
same,TGI,[36],3340 nM
same,GI50,[37],1840 nM
same,TGI,[37],3620 nM
same,GI50,[38],1650 nM
same,TGI,[38],3140 nM
same,GI50,[39],990 nM
same,TGI,[39],2360 nM
same,GI50,[40],1810 nM
same,TGI,[40],3480 nM
same,GI50,[41],2450 nM
same,TGI,[41],4980 nM
same,GI50,[42],1540 nM
same,TGI,[42],2880 nM
same,GI50,[43],1570 nM
same,TGI,[43],3210 nM
same,GI50,[44],1330 nM
same,TGI,[44],2650 nM
same,GI50,[45],1710 nM
same,TGI,[45],3530 nM
same,GI50,[46],1770 nM
same,TGI,[46],3530 nM
same,GI50,[47],1440 nM
same,TGI,[47],2940 nM
same,GI50,[48],1800 nM
same,TGI,[48],3210 nM
same,GI50,[49],2740 nM
same,TGI,[49],6670 nM
same,GI50,[50],2150 nM
same,TGI,[50],5550 nM
same,GI50,[51],1420 nM
same,TGI,[51],2790 nM
same,GI50,[52],2450 nM
same,TGI,[52],5110 nM
same,GI50,[53],1770 nM
same,TGI,[53],3230 nM
same,GI50,[54],1550 nM
same,TGI,[54],3060 nM
same,GI50,[55],1830 nM
same,TGI,[55],3320 nM
same,GI50,[56],2170 nM
same,TGI,[56],5560 nM
same,GI50,[57],1770 nM
same,TGI,[57],3400 nM
same,GI50,[58],1870 nM
same,TGI,[58],3450 nM
